Measured values taken from publication PMC5587909, “Inhibition of the ATP Synthase Eliminates the Intrinsic Resistance of Staphylococcus aureus towards Polymyxins” (mBio, 2017).
In brackets after ≈: the same amount, converted by molar mass. Bridge positions count the residues as written; N and C are the ends. Square brackets hold non-standard residues; d marks the D form. Peptide text beside a SMILES is read from it. * marks the point of attachment. X1 = CC[C@H](C)CCCCC(=O)*; Dab = NCC[C@H](N)C(=O)O

Legend:
[1] = test system: S. aureus JE2 (wild type); assay: microbe, parasite or virus in culture; conditions: Etest on TSA, 37°C, 22 h; wild type S. aureus JE2
Text: (§1) Staphylococcus aureus is intrinsically resistant to the clinically approved cationic antimicrobial peptides polymyxin B (PMB) and colistin ([1], [16]). […] The MIC for PMB was subsequently determined using Etests for the identified mutants.
(§2) The strains used in this study include S. aureus strain JE2 (plasmid-cured derivative of USA300 LAC) and all derivative strains within the Nebraska Transposon Mutant Library (NTML), consisting of 1,920 unique transposon mutants with inactivation of nonessential genes ([15]). The bursa aurealis transposon used to create the collection contains the resistance cassette ermB, which confers resistance to erythromycin ([15]). Additionally we used S. aureus SA113 and two derivatives, SA113 ΔdltA ([9]) and SA113 ΔmprF ([10]). All bacterial strains were cultured at 37°C in tryptic soy broth (TSB) or on tryptic soy agar (TSA), with antimicrobial agents added as indicated. Two methods have been employed to determine MICs to various antimicrobial agents. (i) A 2-fold broth microdilution assay in TSB (100 µl) with an initial inoculum of approximately 5 × 10^5 cells/ml was employed to determine the MICs of polymyxin B sulfate (Sigma), gallidermin (Santa Cruz Biotechnology), nisin (Sigma), bacitracin (Sigma), and LL-37 (Isca Biochemicals). […] The MIC was determined upon incubation at 37°C for 22 h. […]

[2] = test system: S. aureus JE2 atpA transposon mutant (SAUSA300_2060); assay: microbe, parasite or virus in culture; conditions: Etest on TSA, 37°C, 22 h; atpA mutant
Text: as §1, §2

[3] = test system: S. aureus JE2 graR transposon mutant (SAUSA300_0645); assay: microbe, parasite or virus in culture; conditions: Etest on TSA, 37°C, 22 h; graR mutant
Text: as §1, §2

[4] = test system: S. aureus JE2 vraF transposon mutant (SAUSA300_0647); assay: microbe, parasite or virus in culture; conditions: Etest on TSA, 37°C, 22 h; vraF mutant
Text: as §1, §2

[5] = test system: S. aureus JE2 vraG transposon mutant (SAUSA300_0648); assay: microbe, parasite or virus in culture; conditions: Etest on TSA, 37°C, 22 h; vraG mutant
Text: as §1, §2

[6] = test system: S. aureus JE2 atpB transposon mutant (SAUSA300_2064); type: cell-based, Staphylococcus aureus; conditions: Etest on TSA, 37°C, 22 h; atpB mutant
Text: (§3) Staphylococcus aureus is intrinsically resistant to the clinically approved cationic antimicrobial peptides polymyxin B (PMB) and colistin ([1], [16]). […] The MIC for PMB was subsequently determined using Etests for the identified mutants. Nineteen mutants were confirmed to be at least 2-fold more susceptible than the WT (Table 1). As expected, we identified transposon insertions in graS, graR, vraF, and vraG, corroborating previous work on these determinants in S. aureus in relation to increased PMB susceptibility ([12]).
(§4) The strains used in this study include S. aureus strain JE2 (plasmid-cured derivative of USA300 LAC) and all derivative strains within the Nebraska Transposon Mutant Library (NTML), consisting of 1,920 unique transposon mutants with inactivation of nonessential genes ([15]). The bursa aurealis transposon used to create the collection contains the resistance cassette ermB, which confers resistance to erythromycin ([15]). Additionally we used S. aureus SA113 and two derivatives, SA113 ΔdltA ([9]) and SA113 ΔmprF ([10]). All bacterial strains were cultured at 37°C in tryptic soy broth (TSB) or on tryptic soy agar (TSA), with antimicrobial agents added as indicated. Two methods have been employed to determine MICs to various antimicrobial agents. (i) A 2-fold broth microdilution assay in TSB (100 µl) with an initial inoculum of approximately 5 × 10^5 cells/ml was employed to determine the MICs of polymyxin B sulfate (Sigma), gallidermin (Santa Cruz Biotechnology), nisin (Sigma), bacitracin (Sigma), and LL-37 (Isca Biochemicals). (ii) An Etest (BioMérieux) performed on TSA plates was employed to determine MICs for polymyxin B, colistin, ciprofloxacin, oxacillin, linezolid, gentamicin, vancomycin, and daptomycin. The MIC was determined upon incubation at 37°C for 22 h. When indicated, the Etest (BioMérieux) was performed on Mueller-Hinton agar plates (cation adjusted for calcium and magnesium).

[7] = test system: S. aureus JE2 atpG transposon mutant (SAUSA300_2059); type: cell-based, Staphylococcus aureus; conditions: Etest on TSA, 37°C, 22 h; atpG mutant
Text: as §3, §4

[8] = test system: S. aureus JE2 atpH transposon mutant (SAUSA300_2061); type: cell-based, Staphylococcus aureus; conditions: Etest on TSA, 37°C, 22 h; atpH mutant
Text: as §3, §4

[9] = test system: S. aureus JE2 cbiO transposon mutant (SAUSA300_2176); type: cell-based, Staphylococcus aureus; conditions: Etest on TSA, 37°C, 22 h
Text: as §3, §4

[10] = test system: S. aureus JE2 graS transposon mutant (SAUSA300_0646); type: cell-based, Staphylococcus aureus; conditions: Etest on TSA, 37°C, 22 h; graS mutant
Text: as §3, §4

[11] = test system: S. aureus JE2 lspA transposon mutant (SAUSA300_1089); type: cell-based, Staphylococcus aureus; conditions: Etest on TSA, 37°C, 22 h
Text: as §3, §4

[12] = test system: S. aureus JE2 transposon mutant SAUSA300_0918 (diacylglycerol glucosyltransferase); type: cell-based, Staphylococcus aureus; conditions: Etest on TSA, 37°C, 22 h
Text: as §3, §4

[13] = test system: S. aureus JE2 transposon mutant SAUSA300_0980 (hypothetical protein); type: cell-based, Staphylococcus aureus; conditions: Etest on TSA, 37°C, 22 h
Text: as §3, §4

[14] = test system: S. aureus JE2 transposon mutant SAUSA300_1254 (hypothetical protein); type: cell-based, Staphylococcus aureus; conditions: Etest on TSA, 37°C, 22 h
Text: as §3, §4

[15] = test system: S. aureus JE2 transposon mutant SAUSA300_1495 (hypothetical protein); type: cell-based, Staphylococcus aureus; conditions: Etest on TSA, 37°C, 22 h
Text: as §3, §4

[16] = test system: S. aureus JE2 transposon mutant SAUSA300_1785 (putative ABC transporter protein EcsB); type: cell-based, Staphylococcus aureus; conditions: Etest on TSA, 37°C, 22 h
Text: as §3, §4

[17] = test system: S. aureus JE2 transposon mutant SAUSA300_1802 (hypothetical protein); type: cell-based, Staphylococcus aureus; conditions: Etest on TSA, 37°C, 22 h
Text: as §3, §4

[18] = test system: S. aureus JE2 trkA transposon mutant (SAUSA300_0988); type: cell-based, Staphylococcus aureus; conditions: Etest on TSA, 37°C, 22 h
Text: as §3, §4

[19] = test system: S. aureus JE2 vraS transposon mutant (SAUSA300_1866); type: cell-based, Staphylococcus aureus; conditions: Etest on TSA, 37°C, 22 h
Text: as §3, §4

[20] = test system: S. aureus JE2 yajC transposon mutant (SAUSA300_1594); type: cell-based, Staphylococcus aureus; conditions: Etest on TSA, 37°C, 22 h
Text: as §3, §4

S. aureus JE2 (WT) [21] = type: cell-based, Staphylococcus aureus; conditions: 2-fold broth microdilution in TSB (100 µl), inoculum approx. 5 × 10^5 cells/ml, 37°C, 22 h
Text: as §4

[22] = test system: S. aureus JE2 atpA mutant; type: cell-based, Staphylococcus aureus; conditions: 2-fold broth microdilution in TSB (100 µl), inoculum approx. 5 × 10^5 cells/ml, 37°C, 22 h
Text: as §4

[23] = test system: S. aureus JE2 graR mutant; type: cell-based, Staphylococcus aureus
Text: as §4

[24] = test system: S. aureus JE2 vraF mutant; type: cell-based, Staphylococcus aureus
Text: as §4

[25] = test system: S. aureus JE2 vraG mutant; type: cell-based, Staphylococcus aureus; conditions: 2-fold broth microdilution in TSB (100 µl), inoculum approx. 5 × 10^5 cells/ml, 37°C, 22 h
Text: as §4

S. aureus JE2 (WT) [26] = assay: Kill curve experiment, polymyxin B with or without oligomycin A; type: cell-based, Staphylococcus aureus; conditions: WT JE2 in TSB; oligomycin A alone at 8 μg/ml
Text: The ATP synthase is a well-described protein complex, and multiple inhibitors have been identified that interfere with its function—e.g., the macrolide oligomycin A ([32]). […] The combinatory efficacy of PMB and oligomycin A is similar to the observed killing efficacy of PMB against the atpA mutant.
FIG 4 Improved killing efficacy of PMB upon inhibition of the ATP synthase. […] The data represent the average from three measurements, with error bars showing 95% confidence intervals.
From overnight cultures of S. aureus JE2 and the derivative atpA mutant, 100 μl was diluted into 900 μl fresh TSB medium in a Falcon tube and grown for 1 h for the cells to reach the early exponential phase. After 1 h, the cultures were diluted into 10 ml fresh TSB medium in 100-ml Erlenmeyer flasks, reaching an initial cell count of approximately 10^6 cells/ml. Oligomycin A (Sigma) was added to flasks as indicated at a concentration of 8 μg/ml. […] CFU were determined on TSA plates before addition of oligomycin A (time zero [T0]), before addition of polymyxin B (time 30 min [T30]), and every hour for the following 4 h.

[27] = test system: mitochondrial ATP synthase; conditions: cited from earlier work

CC[C@H](C)CCCCC(=O)N[C@@H](CCN)C(=O)N[C@H](C(=O)N[C@@H](CCN)C(=O)N[C@H]1CCNC(=O)[C@H]([C@@H](C)O)NC(=O)[C@H](CCN)NC(=O)[C@H](CCN)NC(=O)[C@H](CC(C)C)NC(=O)[C@@H](CC(C)C)NC(=O)[C@H](CCN)NC1=O)[C@@H](C)O [Colistin, colistin] (X1-[Dab]T[Dab][Dab][Dab][dL]L[Dab][Dab]T; lactam 4-C (inferred); N-terminus assumed)
MIC [1]: >256 µg/mL | MIC [2]: 48 µg/mL (≈ 41 µM) | MIC [3]: 32 µg/mL (≈ 27.4 µM) | MIC [4]: 32 µg/mL (≈ 27.4 µM) | MIC [5]: 24 µg/mL (≈ 20.5 µM) | MIC [6]: 48 µg/mL (≈ 41 µM) | MIC [7]: 48 µg/mL (≈ 41 µM) | MIC [8]: 48 µg/mL (≈ 41 µM) | MIC [9]: 64 µg/mL (≈ 54.7 µM) | MIC [10]: 32 µg/mL (≈ 27.4 µM) | MIC [11]: 256 µg/mL (≈ 219 µM) | MIC [12]: >256 µg/mL | MIC [13]: >256 µg/mL | MIC [14]: 192 µg/mL (≈ 164 µM) | MIC [15]: >256 µg/mL | MIC [16]: >256 µg/mL | MIC [17]: >256 µg/mL | MIC [18]: 128 µg/mL (≈ 109 µM) | MIC [19]: 256 µg/mL (≈ 219 µM) | MIC [20]: 256 µg/mL (≈ 219 µM)

CC[C@H](C)[C@H](NC(=O)[C@H](CCCCN)NC(=O)[C@H](CCC(=O)O)NC(=O)[C@H](CCCCN)NC(=O)[C@H](CO)NC(=O)[C@H](CCCCN)NC(=O)[C@H](CCCNC(=N)N)NC(=O)[C@H](Cc1ccccc1)NC(=O)[C@H](Cc1ccccc1)NC(=O)[C@H](CC(=O)O)NC(=O)CNC(=O)[C@H](CC(C)C)NC(=O)[C@@H](N)CC(C)C)C(=O)NCC(=O)N[C@@H](CCCCN)C(=O)N[C@@H](CCC(=O)O)C(=O)N[C@@H](Cc1ccccc1)C(=O)N[C@@H](CCCCN)C(=O)N[C@@H](CCCNC(=N)N)C(=O)N[C@H](C(=O)N[C@H](C(=O)N[C@@H](CCC(N)=O)C(=O)N[C@@H](CCCNC(=N)N)C(=O)N[C@H](C(=O)N[C@@H](CCCCN)C(=O)N[C@@H](CC(=O)O)C(=O)N[C@@H](Cc1ccccc1)C(=O)N[C@@H](CC(C)C)C(=O)N[C@@H](CCCNC(=N)N)C(=O)N[C@@H](CC(N)=O)C(=O)N[C@@H](CC(C)C)C(=O)N[C@H](C(=O)N1CCC[C@H]1C(=O)N[C@@H](CCCNC(=N)N)C(=O)N[C@H](C(=O)N[C@@H](CCC(=O)O)C(=O)N[C@@H](CO)C(=O)O)[C@@H](C)O)C(C)C)[C@@H](C)CC)C(C)C)[C@@H](C)CC [LL-37]
MIC, WT (S. aureus JE2 (WT) [21]): >128 µg/mL | MIC, atpA [22]: >128 µg/mL | MIC, graR ([23]; 2-fold broth microdilution in TSB (100 µl), inoculum approx. 5 × 10^5 cells/ml, 37°C, 22 h, graR mutant): 64 µg/mL (≈ 14.2 µM) | fold increased sensitivity relative to WT ([23]; graR mutant vs WT JE2, broth microdilution in TSB): at least 2 fold | MIC, vraF ([24]; 2-fold broth microdilution in TSB (100 µl), inoculum approx. 5 × 10^5 cells/ml, 37°C, 22 h, vraF mutant): 64 µg/mL (≈ 14.2 µM) | fold increased sensitivity relative to WT ([24]; vraF mutant vs WT JE2, broth microdilution in TSB): at least 2 fold | MIC, vraG [25]: 128 µg/mL (≈ 28.5 µM)

oligomycin A
killing efficacy (CFU over time) (S. aureus JE2 (WT) [26]): did not display any killing efficacy | inhibition of the mitochondrial ATP synthase (nonselective) [27]: inhibits the mitochondrial ATP synthase
